# Assay: CO concentration of the CO-containing compositions analyzed by gas chromatography
# Type: physicochemical
# Conditions: about 2 atm; for CO concentration of liquid phase obtained by actual measurement: solvent H2O; for CO concentration in liquid phase obtained by actual measurement: solvent carbomer aqueous solution; for CO concentration of IPM: solvent isopropyl myristate
# Description: (§1) Pure water (2.5 mL) was placed in a vial. (3 mL, produced by Maruemu Corporation), and the vial was sealed with a rubber stopper and an aluminum seal. Next, a gas (N2 balance) having an arbitrarily adjusted CO concentration was collected in a Tedlar bag (1 L, produced by AS ONE Corporation). The air in the gas phase in the vial was replaced with the gas in the Tedlar bag until pressure reached about 2 atm by using a gas-tight syringe (M-GAN500, produced by Ito Corporation). Subsequently, the resulting product was allowed to stand until CO in the gas phase was dissolved in the liquid phase to reach equilibrium.
# The CO concentration of the compositions was analyzed by gas chromatography (GC-2014 FID produced by Shimadzu Corporation).
# as §1, with “Isopropyl myristate (IPM: Wako first grade, produced by Fujifilm Wako Pure” for “Pure”, “Chemical Corporation)” for “water”, “vial” for “vial.”, “(MS-GAN500,” for “(M-GAN500,”
# The CO concentration of the obtained compositions was analyzed by gas chromatography (GC-2014 FID produced by Shimadzu Corporation). When the CO (%) in the gas phase in the Tedlar bag was 18%, the CO concentration of IPM was 1500 μM. When the CO (%) in the gas phase in the Tedlar bag was 100%, the CO concentration of IPM was 9000 μM.
# as §1, with “The carbomer aqueous solution” for “Pure water”, “vial” for “vial.”, “(MS-GAN500,” for “(M-GAN500,”
# as §1, with “The hydroxyethyl cellulose aqueous solution” for “Pure water”, “vial” for “vial.”, “(MS-GAN500,” for “(M-GAN500,”
# The CO concentration of the obtained CO-containing compositions was analyzed by gas chromatography (GC-2014 FID produced by Shimadzu Corporation). When the CO (%) in the gas phase in the Tedlar bag was 100%, the CO concentration in the hydroxyethyl cellulose aqueous solution was 1500 μM.
# [1] = CO in gas phase in Tedlar bag 8% (theoretical value)
# [2] = CO in gas phase in Tedlar bag 100% (theoretical value)
compound,measurement,setting,value
"[C-]#[O+] [CO, carbon monoxide]",CO concentration of liquid phase obtained by actual measurement,[1],100 µM
same,CO concentration of liquid phase obtained by actual measurement,CO in gas phase in Tedlar bag 34% (theoretical value),500 µM
same,CO concentration of liquid phase obtained by actual measurement,CO in gas phase in Tedlar bag 67% (theoretical value),1000 µM
same,CO concentration of liquid phase obtained by actual measurement,[2],1500 µM
same,CO concentration in liquid phase obtained by actual measurement,[1],100 µM
same,CO concentration in liquid phase obtained by actual measurement,CO in gas phase in Tedlar bag 35% (theoretical value),500 µM
same,CO concentration in liquid phase obtained by actual measurement,[2],1500 µM
same,CO concentration in the hydroxyethyl cellulose aqueous solution,"solvent hydroxyethyl cellulose aqueous solution, CO in gas phase in Tedlar bag 100%",1500 µM
same,CO concentration of IPM,CO in gas phase in Tedlar bag 18%,1500 µM
same,CO concentration of IPM,CO in gas phase in Tedlar bag 100%,9000 µM

# — US20210228621A1, “COMPOSITION FOR SKIN WOUNDS” (SUMITOMO SEIKA CHEMICALS CO., LTD., priority 2018, published 2021)
